Results from patent US11746086B2, “Non-aggregating heptamethine cyanine fluorophores for in vivo imaging” (The USA, as represented by the Secretary, Department of …, priority 2018, dated 2023).

Legend:
[1] = Photochemical properties of panitumumab conjugates (absorption/emission spectra, H-aggregation, absolute quantum yield); assay type: physicochemical
Experimental: (§1) Absolute quantum yields (ΦF) were measured using a Quantaurus-QY spectrometer (Hamamatsu, model C11374). This instrument is equipped with an integrating sphere to determine photons absorbed and emitted by a sample. Measurements were carried out at a concentration of 500 nM in PBS (50 mM, pH 7.4) and self-absorption corrections were performed using the instrument software.
The photochemical properties of these conjugates were analyzed by several methods. Absorption/emission curves were obtained following dilution in 50 mM PBS to yield solutions that were 500 nM in protein concentration. […] A 3 h incubation time at room temperature elapsed prior to acquisition. Conjugates were diluted 40-fold into 1:1 MeOH:50 mM PBS and their absorption spectra were recorded on a plate reader using a 384 well plate transparent in the 280 nm range (i.e. UV Co-Star μclear 384 well plate from Greiner Bio-One).
To examine the relative brightness of these conjugates on an in vivo system, phantom imaging on the Perkin-Elmer IVIS® imaging system was performed.

[2] = system: MDA-MB-468 tumor; assay: Dose lowering in vivo imaging study (10, 5, 1 μg) of DOL 4 conjugates; design: species or system athymic nude mice; settings: for tumor signal visualization over dosage range: DOL 4, 10, 5 and 1 μg tail injection
Experimental: (§2) Animal Tumors Models: In vivo studies were performed according to the Frederick National Laboratory for Cancer Research (Frederick, Md.) Animal Care and Use committee guidelines. Fluorescence was longitudinally monitored employing the IVIS spectrum imager (PerkinElmer Inc, Waltham, Mass.). Imager specific Living Image software was used for image acquisition and analysis. Mice body temperature were maintained constant at 37° C. during the imaging procedure with a heated pad located under the anesthesia induction chamber, imaging table, and post procedure recovery cage. All mice were anesthetized in the induction chamber with 3% isoflurane with filtered (0.2 μm) air at 1 liter/minute flow rate for 3-4 minutes and then modified for imaging to 2% with O2 as a carrier with a flow rate of 1 liter/minute. Static 2D images were acquired with the following parameters: excitation filter 745±15 nm, emission filter 800±10 nm, f/stop2, medium binning (8×8) and auto exposure (typically 1-60 seconds). 5-week old female athymic nude mice were purchased from Charles River Laboratories International, Inc. (NCI-Frederick). MDA-MB-468 (5×10^6) in 100 μL of Hanks Balanced Salt Solution were injected the mice subcutaneously in the right dorsum. The size of the tumors were continuously monitored to reach 4-6 mm. In vivo studies were initiated 10 days post cell injection of the mice.
(§3) Data Analysis: Images were obtained using a Pearl Imager (LI-COR) using 800 nm fluorescence channel. Using white light images, the tumors were identified, and regions of interest (ROIs) were located on the tumors, livers, and necks (used as background). The intensities of ROIs were measured based on the total radiance efficiency using fluorescence images and analyzed using Living Image software. Statistics (unpaired t-test) were carried out using Prism 8.
A dose lowering study with the goal of defining an optimal dose for FNIR-Tag conjugates was performed. Three doses, 10 μg, 5 μg, and 1 μg, which span the lower end of the doses used in prior studies, were examined. […]

[3] = Absorption/emission maxima, molar absorption coefficient, absolute quantum yield and brightness of free dyes; assay type: physicochemical; settings: free dye; for ε / λabs / ΦF (PBS): PBS; for ΦF (PBS): absolute quantum yield; for ε × ΦF: brightness in PBS; for Relative brightness (PBS): relative to FNIR-Tag = 1.0; for λem: λexcitation = 740 nm
Experimental: Determination of Molar Absorption Coefficients and Absolute Fluorescence Quantum Yields: Molar absorption coefficients (c) were determined in PBS (pH 7.4) or 1:1 (v/v) MeOH/PBS (pH 7.4) using Beer's law, from plots of absorbance vs. concentration. Measurements were performed in 10 mm path length quartz cuvettes (Hellma 111-QS), maintained at 25° C., with absorbance at the highest concentration≤0.20.
as §1
Properties of FNIR-Tag and IRDye®-800CW are shown below in Table 1. […] Both dyes have similar absorption coefficients (ε), absolute quantum yields (ΦF) and brightness (ε×ΦF) in PBS solution, with free IR-800CW being slightly brighter

[4] = Photostability (photooxidation kinetics) of free dyes under 780 nm LED; assay type: physicochemical; settings: for photooxidation k: 1 μM in 50 mM PBS pH 7.4, 780 nm+/−20 nm LED, 20 mW/cm^2
Experimental: Stock solutions of 5 mM FNIR-Tag and IRDye®-800CW in DMSO were diluted into 50 mM PBS (pH=7.4) to afford 1 μM solutions. The photostability was determined using a procedure described previously using a 780 nm+/−20 nm LED at a light intensity of 20 mW/cm^2 (Nani et al., ACS Central Sci 2017, 3:329). […] As expected both of the free dyes have similar photostability.

[5] = system: EGFR+ tumors; assay: In vivo fluorescence imaging of panitumumab conjugates, 100 μg dose; design: species or system athymic nude mice; settings: for tumor radiance output relative to IRDye-800CW conjugate: 48 h (peak accumulation), normalized to tumor size
Experimental: as §2, §3
Reduced dye aggregation was speculated to impact the pharmacokinetics. […] Fluorescence dorsal and ventral images were recorded at 0 h, 10 min, 24 h, 48 h, and 1 week post-injection. […]

[6] = panitumumab conjugates DOL 1, 2, 4, 500 nM in PBS

Row | Compound | absolute quantum yield of fluorescence (ΦF) with increasing labeling density ([1]; conjugates DOL 1, 2, 4, PBS, 250 nM effective dye concentration) [%] | fluorescent emission as function of labeling density [1, 6] | fluorescence intensity (total radiance normalized to tumor size) compared with IRDye-800CW conjugates ([2]; DOL 4, 10, 5, 1 μg, 4 h to 7 days) | tumor signal visualization over dosage range [2] | absolute quantum yield of fluorescence (ΦF), end of decrease with increased labeling ([1]; antibody conjugates, high labeling, PBS, 250 nM effective dye concentration) [%] | absolute quantum yield of fluorescence (ΦF), start of decrease with increased labeling ([1]; antibody conjugates, low labeling, PBS, 250 nM effective dye concentration) [%] | ε [3] | λabs [3] [nm] | ΦF (PBS) [3] | ε × ΦF [3] | Relative brightness (PBS) [3] | photooxidation k [4] | half-life at 1 μM ([4]; buffer, pH 7.4) [min] | quantum yield of the free dye ([1]; free dye) [%] | H-aggregate peak in the absorption spectrum (~705 nm) [1, 6] | tumor radiance output relative to IRDye-800CW conjugate ([5]; DOL 2, 100 μg tail injection) [×] | tumor radiance output relative to IRDye-800CW conjugate ([5]; DOL 4, 100 μg tail injection) [×] | λem [3] | λem ([3]; listed as IR-800CW) [nm] | liver uptake (liver-to-background ratio) compared with FNIR-Tag conjugates ([5]; 100 μg, DOL 2 and 4, 10 min time point)
1 | FNIR-Tag-panitumumab conjugates | ~10 | increases with higher labeling density | significantly higher fluorescence intensity | Clearly discernable signals |  |  |  |  |  |  |  |  |  |  |  |  |  |  |  | 
2 | IRDye®-800CW conjugates: panitumumab labeled with IRDye®-800CW-NHS, comparator conjugates [reference compound] |  |  |  | could not be visualized below 5 μg | ~2.5 | ~9 |  |  |  |  |  |  |  |  |  |  |  |  |  | 
3 | COCCOCCOCCN1/C(=C/C=C2\CCCC(/C=C/C3=[N+](CCOCCOCCOC)c4ccc(S(=O)(=O)[O-])cc4C3(C)C)=C2OCCC[N+](C)(C)CCCC(=O)ON2C(=O)CCC2=O)C(C)(C)c2cc(S(=O)(=O)[O-])ccc21 [FNIR-Tag] |  |  |  |  |  |  | 200 000 M^−1 · cm^−1 | 765 | 0.099 | 19 800 | 1.0 | 0.04274 | 16.2 | 10 | does not form a significant H-aggregate band | 2.5 | 7.1 |  |  | 
4 | CC1(C)C(=CC=C2CCCC(C=CC3=[N+](CCCCCC(=O)[O-])c4ccc(S(=O)(=O)[O-])cc4C3(C)C)=C2Oc2ccc(S(=O)(=O)[O-])cc2)N(CCCCS(=O)(=O)[O-])c2ccc(S(=O)(=O)[O-])cc21.[Na+].[Na+].[Na+].[Na+] [IRDye®-800CW] |  | nearly constant across the range of labeling density |  |  |  |  | 240 000 M^−1 · cm^−1 | 774 | 0.087 | 23 490 | 1.2 | 0.04463 |  |  |  |  |  | 795ª nm | 795 | significantly higher liver uptake
